Laboratory results: patent publication US20230174472A1, “THERAPEUTIC USE OF PLEUROMUTILINS” (priority 2020, published 2023)
Converted amounts (≈) assume the structure as drawn. Read-outs that look alike come from different tables or passages of the source.

Tests used:
[1] = system: influenza A/Puerto Rico/8/34 (H1N1); type: in vivo, BALB/c mice
[2] = system: alpha coronavirus 229E (HCoV-229E); assay: inhibition of virus-induced CPE, CoV229E in MRC-5 cells (XTT); type: cell-based; conditions: for EC50: Human coronavirus 229E, MOI 0.001, read-out: EC50
Method: The antiviral compound Remdesivir served as positive control.
Lefamulin (as acetate) was evaluated using different treatment conditions of 4 h, 1 h or 0 h incubation prior to virus addition and addition 1 h after infection For this particular set of experiments, coronavirus was diluted 1:200 in assay medium and added at 100 μL/well to achieve approximately 90% cell killing in the untreated virus control wells (MOI of 0.001).

[3] = system: Measles virus (strain Edmonston); assay: microbe, parasite or virus in culture; type: cell-based
[4] = system: Dengue virus (strain DENV2New Guinea); assay: inhibition of virus-induced CPE, Dengue virus in Huh7 cells; type: cell-based; conditions: Huh-7, 4 h pre-incubation
Method: The Dengue virus strain DENV2New Guinea was obtained from ATCC (VR-1584) and was grown in Rhesus monkey kidney cells for the production of stock virus pools.
(§1) Cell viability determination as well as EC50 and TC50 calculations were performed as described in Examples 6 and 8.

[5] = system: Zika virus (strain ZIKVPRVABC59); assay: inhibition of virus-induced CPE, Zika virus in Huh7 cells; type: cell-based; conditions: Huh-7, 4 hour pretreatment, MOI 0.001, Lefamulin as acetate
Method: The Zika virus strain PRVABC59 obtained from ATCC (catalog VR-1843) […] was grown in Rhesus monkey kidney cells for the production of stock virus pools.
as §1

[6] = system: human rhinovirus strain HRV16 strain 11757; assay: inhibition of virus-induced CPE, human rhinovirus in H1-HeLa cells; type: cell-based; conditions: Human rhinovirus sp., 4 hour pretreatment, MOI 0.0005, Lefamulin as acetate
Method: as §1

[7] = system: influenza virus (strain A/PR/8/34); assay: inhibition of virus-induced CPE, influenza virus in MDCK cells; type: cell-based; conditions: unidentified influenza virus, PR/8, MDCK, read-out: maximum inhibition of the influenza mediated CPE
MRC-5 cells = conditions: for cytotoxic effect on the viability of the cell control: Example 6
[8] = system: human respiratory syncytial virus (strain RSVA2); conditions: Example 8
in vitro [9] = conditions: human
in vitro [10] = conditions: dog
[11] = cell viability of uninfected HeLa cells; conditions: human
[12] = cell viability of uninfected Huh7 cells; conditions: human
HEp2 cells = assay: cell viability of uninfected HEp2 cells (XTT); conditions: Example 8
[13] = system: human respiratory syncytial virus (strain RSVA2); assay: inhibition of virus-induced CPE, RSVA2 in HEp2 cells (XTT); conditions: human respiratory syncytial virus
[14] = system: mice challenged with lipopolysaccharide (LPS); assay: LPS induced lung neutrophilia model, BALF cell counts (Example 2); conditions: 4 h post LPS
[15] = system: mice challenged with lipopolysaccharide (LPS); assay: LPS induced lung neutrophilia model, BALF cell counts 4 h post LPS (Example 1)
[16] = system: TNF-α, IL-6, IL-1β, GM-CSF, CXCL1, CXCL2, CCL2, MMP9 in lung homogenate; assay: LPS induced lung neutrophilia model, marker concentrations in lung homogenate (Example 2)
HeLa cells = assay: cell viability of uninfected HeLa cells; conditions: Example 11
Huh7 cells = assay: cell viability of uninfected Huh7 cells; conditions: Example 12 (Dengue assay)
[17] = high dose: 105 mg/kg/day SC in three injections until day 3, then 70 mg/kg twice daily
[18] = high dose, Day 6, vs vehicle treated control
[19] = Lefamulin 35, 70 and 140 mg/kg SC half an hour prior to IN LPS, vs LPS challenge (p<0.05)
[20] = 10, 30, or 100 mg/kg SC pre-treatment
[21] = 10, 30, or 100 mg/kg SC pre-treatment, 4 h post LPS

C=C[C@]1(C)C[C@@H](OC(=O)CS[C@@H]2CC[C@@H](N)C[C@H]2O)[C@]2(C)C(C)CC[C@]3(CCC(=O)[C@H]32)[C@@H](C)[C@@H]1O (stereo partly drawn) [Lefamulin, 14-O-{[(1R, 2R, 4R)-4-amino-2-hydroxy-cyclohexylsulfanyl]-acetyl}-mutilin]
B cells (BALF) ([1]; Day 6): reduction was only significant at the highest dose
infiltration of CD4 cells in the lung ([1]; Day 6, both doses tested): decreased
infiltration of CD8 cells in the lung ([1]; Day 6, both doses tested): decreased
infiltration of NK cells in the lung ([1]; Day 6, both doses tested): decreased
neutrophils infiltration (BALF) ([1]; Day 6, both doses tested): significantly decreased
total immune cell infiltration in the lung (BALF flow cytometry) ([1]; Day 6, both doses tested, p<0.05): significantly decreased
inflammatory monocyte infiltration in the lung ([1]; Day 6, higher dose): significantly reduced
lung viral titres (TCID50 on MDCK cells) ([1]; Lefamulin at both doses, Oseltamivir positive control, Day 3 and Day 6, vs vehicle treated control): reduced
bodyweight ([1]; at the investigated doses (low and high dose SC)): did not have a significant effect
clinical scores compared to vehicle [1, 17]: increase
survival compared to vehicle [1, 17]: decrease
alveolar inflammation (histopathology) [1, 18]: significant reduction
bronchial degeneration (histopathology) [1, 18]: significant reduction
overall histopathology score [1, 18]: significant reduction
macroscopically evaluated lung consolidation ([1]; low dose: 35 mg/kg SC twice daily, Day 6): significant improvement
survival until day 6 ([1]; lower dose: 35 mg/kg SC twice daily, Day -1 to Day 6): 90%
reduction of viral CPE ([2]; 10 µM): 91.82%
reduction of viral CPE ([2]; 1 h, 50 µM): 86.83%
EC50 ([2]; MRC5, 1 h, Example 7, 1 h post-infection): 15.1 µM
EC50 ([2]; MRC5, Example 6, MRC-5 cells, 4 h incubation prior to virus, 6 days post-infection, Lefamulin as acetate, Tiamulin as fumarate): 3.87 µM
EC50 ([2]; MRC5, Example 7, 0 h pretreatment): 3.08 µM
EC50 ([2]; MRC5, Example 7, 1 h pretreatment): 2.16 µM
EC50 ([2]; MRC5, Example 7, 4 h pretreatment): 2.18 µM
EC50 ([3]; Measles morbillivirus, HeLa): 0.89 µM
EC50 ([4]; MOI 0.001, Lefamulin as acetate): 6.79 µM
EC50 [5]: 2.78 µM
EC50 [6]: 9.34 µM
inhibition at 5 µM [7]: 18.4%
cytotoxic effect on the viability of the cell control (MRC-5 cells; 10 μM): no cytotoxic effect
cytotoxic effect on the viability of the cell control (MRC-5 cells; 50 μM): cytotoxic effect
CC50 (MRC-5 cells; human, 6 days): > 50 µM
reduction of viral CPE ([8]; 10 μM): 92.17%
reduction of viral CPE ([8]; 50 μM): 100%
cytotoxicity (MDCK cells; 50 μM): cytotoxicity was observed
concentrations cytotoxic to MDCK cells (MDCK cells; Example 15): greater than 23 μM
CC50 (in vitro [9]): 24.1 µM
CC50 (in vitro [10]): 23.8 µM
CC50 at 6 days [11]: 72.7 µM
CC50 at 6 days ([12]; TC50, Example 12 (Dengue assay)): 23.3 µM
CC50 at 6 days ([12]; TC50, Example 13 (Zika assay)): 23.4 µM
cytotoxic effect on the viability of the cell control (HEp2 cells; 10 μM and 50 μM): no cytotoxic effect
cytotoxic effect on the viability of the cell control (HEp2 cells; 100 μM): cytotoxic effect
EC50 ([13]; HEp-2, Example 8, HEp2 cells, 4 h incubation prior to virus, MOI 0.001, 6 days post-infection, Lefamulin as acetate, Tiamulin as fumarate): 5.34 µM
EC50 ([13]; HEp-2, Example 9, MOI 0.0004): 2.34 µM
EC50 ([13]; HEp-2, Example 9, MOI 0.0008): 28.7 µM
EC50 ([13]; HEp-2, Example 9, MOI 0.001): 32.3 µM
EC50 ([13]; HEp-2, Example 9, MOI 0.003): > 63.2 µM
total cell counts in BALF, significance of change ([14]; 100 mg/kg SC, p<0.05): statistically significant
total cell counts in BALF ([14]; 10, 30, or 100 mg/kg SC 30 min before LPS): reduced dose-dependently
lymphocyte cell counts in BALF ([14]; 10, 30 and 100 mg/kg SC): not significantly affected
macrophage cell counts in BALF ([14]; 10, 30 and 100 mg/kg SC): not significantly affected
neutrophil cells in BALF ([14]; 10, 30 and 100 mg/kg SC): dose-dependent and significant reduction
neutrophil cell count in BALF [15, 19]: statistically significant reduction
total cell count in BALF [15, 19]: statistically significant reduction
cell influx (BALF) ([15]; highest dose of 140 mg/kg SC): Almost complete impairment
MMP9 concentrations in lung homogenate ([16]; 10 mg/kg SC): did not alter
reduction of MMP9 levels in lung homogenate ([16]; 30 mg/kg SC): 26%
reduction of MMP9 levels in lung homogenate ([16]; 100 mg/kg SC): 53%
reduction of IL-1β level in lung homogenate ([16]; 100 mg/kg SC pre-treatment): 24%
CXCL1 level in lung homogenate [16, 20]: significantly reduced
CXCL2 level in lung homogenate [16, 20]: significantly reduced
reduction of IL-6 level in lung homogenate [16, 21]: ≥ 50%
reduction of TNF-α level in lung homogenate [16, 21]: ≥ 50%
GM-CSF in lung homogenate ([16]; all doses tested (10, 30, 100 mg/kg SC)): almost completely inhibited
LPS-induced CCL2 increase in the lung homogenate ([16]; all investigated doses (10, 30, 100 mg/kg SC), Valnemulin particularly at 10 and 30 mg/kg): completely inhibited

NC(=O)c1ncn([C@@H]2O[C@H](CO)[C@@H](O)[C@H]2O)n1 [Ribavirin, reference compound]
EC50 ([3]; HeLa cells, 4 h pre-incubation, MOI 0.008): 1.88 mg/L
EC50 ([4]; MOI 0.001): 4.73 mg/L
TC50 (HeLa cells): 21.6 mg/L (≈ 88.4 µM)
TC50 (Huh7 cells): 48.5 mg/L (≈ 199 µM)
